Laboratory results from patent US4579840A, “Method of blocking immune complex binding to immunoglobulin Fc receptors” (Immunetech Pharmaceuticals, priority 1983, dated 1986).
Ends that are not written are not given here. Peptide text beside a SMILES is read from it. * marks the point of attachment. Cbz = O=C(OCc1ccccc1)*

Assays:
[1] = biological target: T1, LYMPHOCYTE Fc Receptor IgG (Homo sapiens, UniProt P31994); experiment: Rosette inhibition assay, lymphocyte IgG Fc receptor; format: binding; settings: RPMI-8866 and Daudi cell lines; relative to intact monomeric myeloma IgG at equal concentration; NS = not significantly different from 0
T1 construct: the cells expressing surface Fc receptors formed rosettes; endogenous in cells; host or cells: RPMI-8866 / Daudi
T1 sequence (P31994 43-310): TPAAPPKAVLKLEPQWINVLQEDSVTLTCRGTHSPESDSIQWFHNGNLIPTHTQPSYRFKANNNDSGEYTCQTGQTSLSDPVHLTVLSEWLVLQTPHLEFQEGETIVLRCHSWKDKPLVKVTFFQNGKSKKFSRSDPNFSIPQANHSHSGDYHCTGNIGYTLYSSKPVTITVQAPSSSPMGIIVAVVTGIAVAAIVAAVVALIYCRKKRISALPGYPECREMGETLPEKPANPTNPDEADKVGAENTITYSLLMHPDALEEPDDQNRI
Procedure: (§1) The Fc receptor blocking activity of the subject peptides was assessed using well established techniques and procedures. In particular, a rosette assay was employed which uses either monomeric, chemically or heat aggregated human IgG or IgE obtained from human myeloma sera. (Gonzalez-Molina, et al., J. Clin. Invest., 59, 616 (1977); Spiegelberg, et al. in Immunoassays: Clinical Laboratory Techniques for the 1980's (Alan R. Liss: New York, 1980), pp. 287-300). The IgG or IgE is then adsorbed to ox-erythrocytes which has been previously treated with trypsin and pyruvic aldehyde. Fresh human cell PMNs, monocytes and basophils from a patient with basophilic chronic myelogenous leukemia or human cell lines (RPMI-8866, and Daudi for lymphocyte Fc receptors and U937 for monocyte/macrophage Fc receptors) were then incubated in the presence or absence of inhibitors (monomeric IgG or IgE or peptides) at equal concentrations for fifteen minutes before addition of the indicator oxerythrocytes. In the absence of inhibitors, the cells expressing surface Fc receptors formed rosettes, clusters of three or more indicator erythrocytes that bound to the cells by virtue of exposed Fc regions on the erythrocyte surface. Addition of inhibitor myeloma proteins or inhibitor peptides produced a reproducable reduction of rosette formation, […], phosphate buffered isotonic saline, was used alone as control and then multiplying the calculated quotient by 100.
(§2) Table 1 presents the inhibition observed by representative peptide inhibitors calculated as a percentage of the inhibition observed with intact, monomeric myeloma proteins. Thus, 50 percent inhibition implys that the peptide was 50% as inhibitory as the intact myeloma protein to which it was compared.

[2] = biological target: T2, MONOCYTE/MACROPHAGE Fc Receptor IgE (Homo sapiens, UniProt P06734); experiment: Rosette inhibition assay, monocyte/macrophage IgE Fc receptor; format: binding; settings: human monocytes or U937; relative to intact monomeric myeloma IgE at equal concentration; NS = not significantly different from 0
T2 construct: the cells expressing surface Fc receptors formed rosettes; endogenous in cells; host or cells: fresh human monocytes or U937
T2 sequence (P06734 1-321): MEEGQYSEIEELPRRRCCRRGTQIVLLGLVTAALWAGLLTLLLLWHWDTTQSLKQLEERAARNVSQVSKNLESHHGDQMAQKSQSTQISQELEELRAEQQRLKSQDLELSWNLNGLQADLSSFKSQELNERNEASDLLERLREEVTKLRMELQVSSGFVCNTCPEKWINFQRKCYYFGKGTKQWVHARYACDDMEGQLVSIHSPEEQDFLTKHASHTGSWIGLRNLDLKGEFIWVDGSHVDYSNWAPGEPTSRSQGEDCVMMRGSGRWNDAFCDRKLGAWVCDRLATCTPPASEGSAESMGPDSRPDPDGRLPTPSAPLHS
Procedure: as §1, §2

BASOPHIL Fc Receptor IgE = biological target: T3, BASOPHIL Fc Receptor IgE (Homo sapiens, UniProt P12319); experiment: Rosette inhibition assay, basophil IgE Fc receptor; format: binding; settings: basophils from a patient with basophilic chronic myelogenous leukemia; relative to monomeric myeloma IgE; NS = not significantly different from 0
T3 construct: the cells expressing surface Fc receptors formed rosettes; endogenous in cells; host or cells: basophils of a patient with basophilic chronic myelogenous leukemia
T3 sequence (P12319 26-257): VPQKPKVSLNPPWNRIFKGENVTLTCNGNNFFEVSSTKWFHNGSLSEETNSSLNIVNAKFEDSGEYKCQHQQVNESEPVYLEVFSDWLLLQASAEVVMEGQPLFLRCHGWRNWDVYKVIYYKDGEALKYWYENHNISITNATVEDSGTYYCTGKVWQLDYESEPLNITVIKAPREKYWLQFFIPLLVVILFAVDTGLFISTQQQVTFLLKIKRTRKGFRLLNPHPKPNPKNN
T3 sequence (Q01362 1-244 partner): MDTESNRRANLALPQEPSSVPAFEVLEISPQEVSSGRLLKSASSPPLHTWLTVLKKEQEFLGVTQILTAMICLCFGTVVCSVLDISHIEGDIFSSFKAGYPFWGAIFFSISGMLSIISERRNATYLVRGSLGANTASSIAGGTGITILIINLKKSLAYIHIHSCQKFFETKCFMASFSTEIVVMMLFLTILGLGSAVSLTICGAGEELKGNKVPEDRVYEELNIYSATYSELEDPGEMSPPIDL
T3 sequence (P30273 19-86 partner): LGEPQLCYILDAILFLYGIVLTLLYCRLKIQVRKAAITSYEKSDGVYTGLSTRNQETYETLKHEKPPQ
Procedure: as §1, §2

C1q Fc receptor = C1q Fc receptor (Homo sapiens, UniProt P02745+P02746+P02747); settings: peptides adsorbed to erythrocytes; Johnson and Thames 1975, Boackle et al. 1979; cited from earlier work
C1q Fc receptor, sequence (P02745 23-245): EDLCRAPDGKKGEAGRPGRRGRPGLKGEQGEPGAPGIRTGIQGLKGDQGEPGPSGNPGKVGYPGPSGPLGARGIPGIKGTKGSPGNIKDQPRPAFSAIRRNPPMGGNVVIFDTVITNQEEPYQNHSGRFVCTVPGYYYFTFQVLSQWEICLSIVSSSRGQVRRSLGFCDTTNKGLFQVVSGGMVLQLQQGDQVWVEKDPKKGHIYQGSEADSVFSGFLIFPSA
C1q Fc receptor, sequence (P02746 28-253): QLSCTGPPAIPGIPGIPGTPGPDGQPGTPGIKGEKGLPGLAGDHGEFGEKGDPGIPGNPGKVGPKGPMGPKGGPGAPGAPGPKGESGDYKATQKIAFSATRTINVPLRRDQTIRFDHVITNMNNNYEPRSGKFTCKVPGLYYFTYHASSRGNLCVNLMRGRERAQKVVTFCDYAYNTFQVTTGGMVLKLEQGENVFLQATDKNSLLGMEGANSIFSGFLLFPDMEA
C1q Fc receptor, sequence (P02747 29-245): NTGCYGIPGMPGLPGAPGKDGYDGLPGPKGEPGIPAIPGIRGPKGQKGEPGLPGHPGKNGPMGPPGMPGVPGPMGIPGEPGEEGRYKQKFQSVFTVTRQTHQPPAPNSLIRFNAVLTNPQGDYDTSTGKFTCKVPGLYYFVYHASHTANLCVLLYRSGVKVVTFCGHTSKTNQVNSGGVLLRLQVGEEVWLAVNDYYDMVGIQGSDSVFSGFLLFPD
C1q Fc receptor, sequence (P00736 18-705 partner): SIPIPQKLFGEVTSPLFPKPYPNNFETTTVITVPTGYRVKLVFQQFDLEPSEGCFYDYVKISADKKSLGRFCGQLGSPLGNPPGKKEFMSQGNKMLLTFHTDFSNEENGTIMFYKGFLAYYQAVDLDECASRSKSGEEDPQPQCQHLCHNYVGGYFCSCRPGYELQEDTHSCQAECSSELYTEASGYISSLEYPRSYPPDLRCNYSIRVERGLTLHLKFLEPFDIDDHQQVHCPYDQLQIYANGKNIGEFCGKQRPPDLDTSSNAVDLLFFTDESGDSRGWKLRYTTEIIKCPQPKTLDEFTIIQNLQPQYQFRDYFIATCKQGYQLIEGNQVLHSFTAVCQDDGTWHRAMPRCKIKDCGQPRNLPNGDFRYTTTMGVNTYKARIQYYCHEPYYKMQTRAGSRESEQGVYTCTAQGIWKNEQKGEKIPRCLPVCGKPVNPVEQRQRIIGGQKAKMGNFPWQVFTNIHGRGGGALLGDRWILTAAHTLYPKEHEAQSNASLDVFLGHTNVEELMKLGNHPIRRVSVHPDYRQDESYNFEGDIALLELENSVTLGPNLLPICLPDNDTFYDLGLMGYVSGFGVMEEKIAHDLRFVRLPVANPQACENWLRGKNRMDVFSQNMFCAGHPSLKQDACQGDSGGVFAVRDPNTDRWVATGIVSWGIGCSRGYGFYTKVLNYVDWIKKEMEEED
C1q Fc receptor, sequence (P09871 16-688 partner): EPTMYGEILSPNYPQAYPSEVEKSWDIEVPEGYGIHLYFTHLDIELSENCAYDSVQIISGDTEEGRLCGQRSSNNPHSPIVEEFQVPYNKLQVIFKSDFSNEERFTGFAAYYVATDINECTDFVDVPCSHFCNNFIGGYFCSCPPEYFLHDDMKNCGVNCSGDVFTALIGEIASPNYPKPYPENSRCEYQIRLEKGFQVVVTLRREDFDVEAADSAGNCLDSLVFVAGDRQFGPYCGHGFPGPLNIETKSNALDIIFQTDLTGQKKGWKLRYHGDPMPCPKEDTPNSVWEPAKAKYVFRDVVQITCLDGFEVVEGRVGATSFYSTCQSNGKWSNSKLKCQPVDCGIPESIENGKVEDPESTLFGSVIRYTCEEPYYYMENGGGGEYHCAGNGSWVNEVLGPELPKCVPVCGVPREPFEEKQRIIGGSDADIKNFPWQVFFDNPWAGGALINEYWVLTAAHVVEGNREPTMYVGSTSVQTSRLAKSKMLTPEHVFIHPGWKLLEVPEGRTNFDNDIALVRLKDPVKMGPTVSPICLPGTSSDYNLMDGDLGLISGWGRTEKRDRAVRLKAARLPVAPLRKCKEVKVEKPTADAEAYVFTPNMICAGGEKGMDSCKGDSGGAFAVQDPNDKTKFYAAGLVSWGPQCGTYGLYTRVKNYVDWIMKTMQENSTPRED

[3] = biological target: T4, LYMPHOCYTE Fc Receptor IgE (Homo sapiens, UniProt P06734); experiment: Rosette inhibition assay, lymphocyte IgE Fc receptor; format: binding; settings: RPMI-8866 and Daudi cell lines; relative to intact monomeric myeloma IgE at equal concentration; NS = not significantly different from 0
T4 construct: the cells expressing surface Fc receptors formed rosettes; endogenous in cells; host or cells: RPMI-8866 / Daudi
T4 sequence (P06734 1-321): T2 sequence (P06734 1-321)
Procedure: as §1, §2

C1 = C1 (Homo sapiens, UniProt P02745+P02746+P02747); settings: Prystowsky et al. 1981, Lukas et al. 1981; cited from earlier work
C1, sequence (P02745 23-245): as the sequence (P02745 23-245) above
C1, sequence (P02746 28-253): as the sequence (P02746 28-253) above
C1, sequence (P02747 29-245): as the sequence (P02747 29-245) above
C1, sequence (P00736 18-705 partner): as the sequence (P00736 18-705 partner) above
C1, sequence (P09871 16-688 partner): as the sequence (P09871 16-688 partner) above

Compound	Rosette inhibition expressed as percent inhibition by monomeric IgG; lymphocyte Fc receptor, IgG [1]	Rosette inhibition expressed as percent inhibition by monomeric IgE; monocyte/macrophage Fc receptor, IgE [2]	Rosette inhibition expressed as percent inhibition by monomeric IgE; basophil Fc receptor, IgE (BASOPHIL Fc Receptor IgE)	complement activating ability (C1q-mediated cell lysis) (C1q Fc receptor)	also measured
YSKLTVDKSR [reference compound]	29%	33%	89%		
KFEWYVEGVE				less active	
TRAEAEQKD [Thr--Arg--Ala--Glu--Ala--Glu--Gln--Lys--Asp]		21%	108%		
NCCCC[C@H](NC(=O)[C@H](CO)NC(=O)[C@H](CCCCN)NC(=O)[C@@H](N)CC(=O)O)C(=O)O [Asp--Lys--Ser--Lys] (H-DKSK-OH)	16%		94%		
C[C@H](NC(=O)[C@H](CCCNC(=N)N)NC(=O)[C@@H](N)[C@@H](C)O)C(=O)N[C@@H](CCC(=O)O)C(=O)O [Thr--Arg--Ala--Glu, Thr-Arg-Ala-Glu] (H-TRAE-OH)	49%	20%	41%		
KFDAYVDG				less active	
TVLHQNWLDGK	34%	95%	100%		Rosette inhibition expressed as percent inhibition by monomeric IgE; lymphocyte Fc receptor, IgE [3]: 95%
VHEAKAKPGR				less active	
NCCCC[C@H](NC(=O)[C@H](CCC(N)=O)NC(=O)[C@@H](N)CCC(=O)O)C(=O)N[C@@H](CC(=O)O)C(=O)O [Glu--Gln--Lys--Asp] (H-EQKD-OH)			106%		
YDYYVDG				less active	
RSTTKTSGPR	100%	87%	110%		Rosette inhibition expressed as percent inhibition by monomeric IgE; lymphocyte Fc receptor, IgE [3]: 87%
SVMHEALHNHYTQK [Ser--Val--Met--His--Glu--Ala--Leu--His--Asn--His--Tyr--Thr--Gln--Lys]		28%	74%		
Ac-Phe-Asn-Trp-Tyr-Val (Ac-FNWYV)					inhibition of C1-mediated hemolysis (C1): less active
FNWYVDGVQVHNAKTK					inhibition of C1-mediated hemolysis (C1): less active
ZAsnTrpTyrVal (Cbz-NWYV)				less active	
KADWYVDG				about as effective in activating C1q-mediated cell lysis as immune complexes formed by heat aggregated IgG	
N=C(N)NCCC[C@H](NC(=O)[C@H](CO)NC(=O)[C@H](CCCCN)NC(=O)[C@@H](N)CC(=O)O)C(=O)O [Asp--Lys--Ser--Arg, Asp-Lys-Ser-Arg] (H-DKSR-OH)	86%	38%	89%		Rosette inhibition expressed as percent inhibition by monomeric IgE; lymphocyte Fc receptor, IgE [3]: 23%

Compound	Rosette inhibition expressed as percent inhibition by monomeric IgG; lymphocyte Fc receptor, IgG [1]	Rosette inhibition expressed as percent inhibition by monomeric IgE; monocyte/macrophage Fc receptor, IgE [2]	Rosette inhibition expressed as percent inhibition by monomeric IgE; basophil Fc receptor, IgE (BASOPHIL Fc Receptor IgE)	complement activating ability (C1q-mediated cell lysis) (C1q Fc receptor)	also measured
PDARHS [Pro--Asp--Ala--Arg--His--Ser, Pro-Asp-Ala-Arg-His-Ser]	95%	87%	101%		Rosette inhibition expressed as percent inhibition by monomeric IgE; lymphocyte Fc receptor, IgE [3]: 98%
TTQPR [Thr--Thr--Gln--Pro--Arg]	36%	58%	80%		
Tyr-Glu-Ala-Gly (YEAG; printed: Tyr-Glu-Ala-Gly)				inactive	
TISKAKGQPR	84%	87%	133%		Rosette inhibition expressed as percent inhibition by monomeric IgE; lymphocyte Fc receptor, IgE [3]: 106%
Trp-Leu				inactive	
TyrGluArgGly (YERG; printed: TyrGluArgGly)				less active	
ZValGluTrpGly (Cbz-VEWG)				less active	
YVEWGERG				less active	
PDARHSTTQPR [Pro--Asp--Ala--Arg--His--Ser--Thr--Thr--Gln--Pro--Arg]	92%	103%	~ 130%		Rosette inhibition expressed as percent inhibition by monomeric IgE; lymphocyte Fc receptor, IgE [3]: 100%
DSNPR [Asp--Ser--Asn--Pro--Arg]		48%	37%		
DKSRAQQGN [Asp--Lys--Ser--Arg--Ala--Gln--Gln--Gly--Asn]			74%		
GVQVHNAKTK					inhibition of C1-mediated hemolysis (C1): approximately as active as inhibitors as intact monomeric IgG
KFDWAVDG				less active	
CC(=O)N[C@@H](CCC(N)=O)C(=O)N1CCC[C@H]1C(=O)N[C@@H](CCC(=O)O)C(=O)N[C@@H](CC(N)=O)C(=O)O [Ac--Gln--Pro--Glu--Asn, Ac-Gln-Pro-Glu-Asn] (Ac-QPEN-OH)	94%	55%	89%		
EWYERG				less active	
TrpTyrValAspGly (WYVDG; printed: TrpTyrValAspGly)				less active	
KYDWYVDG				less active	
